Measurements taken from ChEMBL document CHEMBL1152860, “Synthesis and antiproliferative activity of 3-amino-N-phenyl-1H-indazole-1-carboxamides” (2009).

Tests used:
Format in all cases: functional
[1] = test system: SNB-75; experiment: Growth inhibition of human SNB75 cells after 48 hrs by SRB assay; conditions: SNB-75, 48 h
[2] = test system: ACHN; experiment: Growth inhibition of human ACHN cells after 48 hrs by SRB assay
[3] = test system: UACC-62; experiment: Growth inhibition of human UACC62 cells after 48 hrs by SRB assay; conditions: UACC-62, 48 h
[4] = test system: MOLT-4; experiment: Growth inhibition of human MOLT4 cells after 48 hrs by SRB assay; conditions: MOLT-4, 48 h; for CC50: read-out: LC50 (the source's name)
[5] = test system: OVCAR-5; experiment: Growth inhibition of human OVCAR5 cells after 48 hrs by SRB assay; conditions: OVCAR-5, 48 h
[6] = test system: OVCAR-3; experiment: Growth inhibition of human OVCAR-3 cells after 48 hrs by SRB assay; conditions: OVCAR-3, 48 h
[7] = test system: SN12C; experiment: Growth inhibition of human SN12C cells after 48 hrs by SRB assay
[8] = test system: PC-3; experiment: Growth inhibition of human PC3 cells after 48 hrs by SRB assay; conditions: PC-3, 48 h
[9] = test system: RXF 393; experiment: Growth inhibition of human […] cells after 48 hrs by SRB assay; conditions: RXF 393, 48 h
[10] = test system: COLO 205; experiment: Growth inhibition of human COLO205 cells after 48 hrs by SRB assay; conditions: COLO 205, 48 h
[11] = test system: UO-31; experiment: Growth inhibition of human UO31 cells after 48 hrs by SRB assay; conditions: UO-31, 48 h
[12] = test system: U-251; experiment: Growth inhibition of human U251 cells after 48 hrs by SRB assay; conditions: U-251, 48 h
[13] = test system: SF-268; experiment: Growth inhibition of human SF268 cells after 48 hrs by SRB assay; conditions: SF-268, 48 h
[14] = test system: HCC 2998; experiment: Growth inhibition of human HCC2998 cells after 48 hrs by SRB assay; conditions: HCC 2998, 48 h
[15] = test system: HL-60(TB); experiment: Growth inhibition of human HL-60(TB) cells after 48 hrs by SRB assay; conditions: HL-60, 48 h; for CC50: read-out: LC50 (the source's name)
[16] = test system: HT-29; experiment: Growth inhibition of human HT-29 cells after 48 hrs by SRB assay; conditions: HT-29, 48 h
[17] = test system: MDA-MB-231; experiment: Growth inhibition of human MDA-MB-231 cells after 48 hrs by SRB assay; conditions: MDA-MB-231, 48 h
[18] = test system: SF-539; experiment: Growth inhibition of human SF539 cells after 48 hrs by SRB assay; conditions: SF-539, 48 h
[19] = test system: NCI-H226; experiment: Growth inhibition of human NCI-H226 cells after 48 hrs by SRB assay; conditions: NCI-H226, 48 h
[20] = test system: KM12; experiment: Growth inhibition of human KM12 cells after 48 hrs by SRB assay; conditions: KM12, 48 h
[21] = test system: SK-OV-3; experiment: Growth inhibition of human SKOV3 cells after 48 hrs by SRB assay; conditions: SK-OV-3, 48 h
[22] = test system: NCI-H522; experiment: Growth inhibition of human NCI-H522 cells after 48 hrs by SRB assay; conditions: NCI-H522, 48 h
[23] = test system: UACC-257; experiment: Growth inhibition of human UACC257 cells after 48 hrs by SRB assay; conditions: UACC-257, 48 h
[24] = test system: MCF7; experiment: Growth inhibition of human MCF7 cells after 48 hrs by SRB assay; conditions: MCF7, 48 h
[25] = test system: IGROV-1; experiment: Growth inhibition of human IGROV1 cells after 48 hrs by SRB assay; conditions: IGROV-1, 48 h
[26] = test system: HOP-92; experiment: Growth inhibition of human HOP92 cells after 48 hrs by SRB assay; conditions: HOP-92, 48 h
[27] = test system: SK-MEL-28; experiment: Growth inhibition of human SK-MEL-28 cells after 48 hrs by SRB assay; conditions: SK-MEL-28, 48 h
[28] = test system: A498; experiment: Growth inhibition of human A498 cells after 48 hrs by SRB assay; conditions: A498, 48 h
[29] = test system: T47D; experiment: Growth inhibition of human T47D cells after 48 hrs by SRB assay
[30] = test system: BT-549; experiment: Growth inhibition of human BT549 cells after 48 hrs by SRB assay; conditions: BT-549, 48 h
[31] = test system: M14; experiment: Growth inhibition of human M14 cells after 48 hrs by SRB assay; conditions: M14, 48 h
[32] = test system: SW-620; experiment: Growth inhibition of human SW620 cells after 48 hrs by SRB assay; conditions: SW-620, 48 h
[33] = test system: 786-0; experiment: Growth inhibition of human 786-0 cells after 48 hrs by SRB assay; conditions: 786-0, 48 h
[34] = test system: K562; experiment: Growth inhibition of human K562 cells after 48 hrs by SRB assay; conditions: K562, 48 h
[35] = test system: SK-MEL-5; experiment: Growth inhibition of human SK-MEL-5 cells after 48 hrs by SRB assay; conditions: SK-MEL-5, 48 h
[36] = test system: RPMI-8226; experiment: Growth inhibition of human RPMI8226 cells after 48 hrs by SRB assay; conditions: RPMI-8226, 48 h; for CC50: read-out: LC50 (the source's name)
[37] = test system: EKVX; experiment: Growth inhibition of human EKVX cells after 48 hrs by SRB assay
[38] = test system: TK-10; experiment: Growth inhibition of human TK10 cells after 48 hrs by SRB assay; conditions: TK-10, 48 h
[39] = test system: LOX IMVI; experiment: Growth inhibition of human LOXIMVI cells after 48 hrs by SRB assay
[40] = test system: NCI/ADR-RES; experiment: Growth inhibition of human NCI/ADR-RES cells after 48 hrs by SRB assay
[41] = test system: Malme-3M; experiment: Growth inhibition of human MALME-3M cells after 48 hrs by SRB assay
[42] = test system: NCI-H23; experiment: Growth inhibition of human NCI-H23 cells after 48 hrs by SRB assay; conditions: NCI-H23, 48 h
[43] = test system: SR; experiment: Growth inhibition of human SR cells after 48 hrs by SRB assay
[44] = test system: SF-295; experiment: Growth inhibition of human SF295 cells after 48 hrs by SRB assay; conditions: SF-295, 48 h
[45] = test system: HOP-62; experiment: Growth inhibition of human HOP62 cells after 48 hrs by SRB assay; conditions: HOP-62, 48 h
[46] = read-out: LC50 (the source's name)

Structure (SMILES): CCCCOc1ccc(NC(=O)n2nc(N)c3ccccc32)cc1
- GI50 [1]: 28.6 µM
- GI50 [2]: 22.8 µM
- GI50 [3]: 14.7 µM
- GI50 [4]: 4.48 µM
- TGI [4]: 46.2 µM
- CC50 [4]: > 100 µM
- GI50 [5]: 20 µM
- GI50 [6]: 18.8 µM
- GI50 [7]: 23.1 µM
- GI50 [8]: 14.9 µM
- GI50 [9]: 29.6 µM
- GI50 [10]: 13.9 µM
- GI50 [11]: 17.5 µM
- GI50 [12]: 30.5 µM
- GI50 [13]: 25.8 µM
- GI50 [14]: 19 µM
- GI50 [15]: 2.23 µM
- TGI [15]: 30.4 µM
- CC50 [15]: > 100 µM
- GI50 [16]: 13.5 µM
- GI50 [17]: 13.8 µM
- GI50 [18]: 17.8 µM
- GI50 [19]: 21.2 µM
- GI50 [20]: 11.3 µM
- GI50 [21]: 44 µM
- GI50 [22]: 27.4 µM
- GI50 [23]: 29.2 µM
- GI50 [24]: 14.5 µM
- GI50 [25]: 35.5 µM
- GI50 [26]: 18.6 µM
- GI50 [27]: 32.6 µM
- GI50 [28]: 19 µM
- GI50 [29]: 14.8 µM
- GI50 [30]: 14 µM
- GI50 [31]: 18.6 µM
- GI50 [32]: 18.3 µM
- GI50 [33]: 21 µM
- GI50 [34]: 15.9 µM
- GI50 [35]: 15.2 µM
- GI50 [36]: 2.72 µM
- TGI [36]: 30.8 µM
- CC50 [36]: > 100 µM
- GI50 [37]: 13.3 µM
- GI50 [38]: 24.2 µM
- GI50 [39]: 12.2 µM
- GI50 [40]: 23.7 µM
- GI50 [41]: 14.7 µM
- GI50 [42]: 19.4 µM
- GI50 [43]: 16 µM
- GI50 [44]: 21.7 µM
- GI50 [45]: 20.8 µM

Structure (SMILES): Nc1nn(C(=O)Nc2ccc(Cc3ccccc3)cc2)c2ccccc12
- GI50 [1]: 17 µM
- GI50 [2]: 1.69 µM
- TGI [2]: 33.4 µM
- CC50 [2, 46]: > 100 µM
- GI50 [3]: 0.353 µM
- TGI [3]: > 100 µM
- CC50 [3, 46]: > 100 µM
- GI50 [4]: 0.636 µM
- TGI [4]: 20.4 µM
- CC50 [4]: > 100 µM
- GI50 [5]: 31.3 µM
- GI50 [6]: 6.23 µM
- GI50 [7]: 12.9 µM
- GI50 [8]: 13.5 µM
- GI50 [9]: 22.2 µM
- GI50 [10]: 13.4 µM
- GI50 [11]: 0.347 µM
- TGI [11]: > 100 µM
- CC50 [11, 46]: > 100 µM
- GI50 [12]: 13.9 µM
- GI50 [13]: 4.66 µM
- GI50 [14]: 4.27 µM
- GI50 [15]: 0.466 µM
- TGI [15]: 15.2 µM
- CC50 [15]: 54.9 µM
- GI50 [16]: 2.39 µM
- TGI [16]: 17.6 µM
- CC50 [16, 46]: 56.3 µM
- GI50 [17]: 0.847 µM
- TGI [17]: 43.9 µM
- CC50 [17, 46]: > 100 µM
- GI50 [18]: 0.495 µM
- TGI [18]: 5.36 µM
- CC50 [18, 46]: > 100 µM
- GI50 [19]: 13.5 µM
- GI50 [20]: 2.94 µM
- TGI [20]: > 100 µM
- CC50 [20, 46]: > 100 µM
- GI50 [21]: 36.9 µM
- GI50 [22]: 2.9 µM
- TGI [22]: > 100 µM
- CC50 [22, 46]: > 100 µM
- GI50 [23]: 10 µM
- GI50 [24]: 0.555 µM
- TGI [24]: 8.82 µM
- CC50 [24, 46]: 89.1 µM
- GI50 [25]: 6.98 µM
- GI50 [26]: 14.2 µM
- GI50 [27]: 11.5 µM
- GI50 [28]: 16.7 µM
- GI50 [29]: 1.55 µM
- TGI [29]: > 100 µM
- CC50 [29, 46]: > 100 µM
- GI50 [30]: 13.5 µM
- GI50 [31]: 0.772 µM
- TGI [31]: > 100 µM
- CC50 [31, 46]: > 100 µM
- GI50 [32]: 3.62 µM
- GI50 [33]: 3.76 µM
- GI50 [34]: 1.2 µM
- LC50 (concentration killing 50% of cells) [34]: > 100 µM
- TGI [34]: 33.8 µM
- GI50 [35]: 2.22 µM
- TGI [35]: 8.64 µM
- CC50 [35, 46]: 34.3 µM
- GI50 [36]: 1.86 µM
- TGI [36]: 25.8 µM
- CC50 [36]: 84 µM
- GI50 [37]: 11.2 µM
- GI50 [38]: 27.2 µM
- GI50 [39]: 0.477 µM
- LC50 (concentration killing 50% of cells) [39]: 61.5 µM
- TGI [39]: 16.1 µM
- GI50 [40]: 7.87 µM
- GI50 [41]: 19.2 µM
- GI50 [42]: 16.8 µM
- GI50 [43]: 0.0153 µM
- TGI [43]: 82.2 µM
- CC50 [43, 46]: 34.8 µM
- GI50 [44]: 0.53 µM
- TGI [44]: > 100 µM
- CC50 [44, 46]: > 100 µM
- GI50 [45]: 13.7 µM
